According to publication PMC5000470, “Optimization of extraction parameters of PTP1β (protein tyrosine phosphatase 1β), inhibitory polyphenols, and anthocyanins from Zea mays L. using response surface methodology (RSM)” (BMC Complementary and Alternative Medicine, 2016):
Like-named read-outs stand apart in the source and are kept apart here.

Experiments:
[1] = target: T1, PTP1β (human, recombinant) (Homo sapiens, UniProt P18031); assay: PTP1β inhibitory activity assay (pNPP substrate); format: biochemical; conditions: for inhibition at 10 µg/mL: concentration 10 μg/mL; for inhibition at 50 µg/mL: concentration 50 μg/mL; for inhibition at 25 µg/mL: concentration 25 μg/mL
T1 construct: purchased BIOMOL International LP (Plymouth Meeting, PA)
T1 sequence (P18031 1-435): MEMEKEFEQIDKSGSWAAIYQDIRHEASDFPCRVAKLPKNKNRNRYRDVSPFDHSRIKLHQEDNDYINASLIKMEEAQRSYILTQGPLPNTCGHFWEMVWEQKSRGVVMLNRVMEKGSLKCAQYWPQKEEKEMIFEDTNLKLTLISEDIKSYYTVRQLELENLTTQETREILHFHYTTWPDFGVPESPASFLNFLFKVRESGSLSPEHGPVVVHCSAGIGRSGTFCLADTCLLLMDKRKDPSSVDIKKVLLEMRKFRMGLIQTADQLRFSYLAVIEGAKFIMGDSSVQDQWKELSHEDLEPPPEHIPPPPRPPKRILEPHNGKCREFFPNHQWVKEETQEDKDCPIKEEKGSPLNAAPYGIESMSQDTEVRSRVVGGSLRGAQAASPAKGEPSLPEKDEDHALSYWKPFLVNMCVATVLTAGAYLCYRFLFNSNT
Procedure: A PTP1β (human, recombinant) drug discovery kit was purchased from BIOMOL® International LP (Plymouth meeting, PA). Enzymatic activity was measured using pNPP, as described previously. To each of the 96-wells in a microtiter plate (final volume: 100 μL) was added 2 mM pNPP and PTP1β (0.05-0.1 ng/well) in a buffer containing 50 mM citrate (pH 6.0), 0.1 M sodium chloride, 1 mM EDTA, and 1 mM dithiothreitol, with or without test compounds. Following incubation at 37 °C for 30 min, the reaction was terminated with 10 M sodium hydroxide.
All calculations and analyses were performed using statistical analysis system (SAS, SAS Institude Inc., NC, USA, version 9.1) software and Sigma plot (Systat Software Inc., USA, version 11). Inhibition rates were calculated as percentages (%) with respect to the control value and IC50 value was estimated from the least-squares regression line of the logarithmic concentration plotted against inhibitory activity.

[2] = tested on: rat lenses aldose reductase; set-up: method as in PMID 23586057; conditions: cited from earlier work
[3] = tested on: human recombinant aldose reductase; set-up: method as in PMID 23586057; conditions: cited from earlier work
[4] = target: T1, PTP1β (human, recombinant); assay: Kinetics of PTP1β inhibition (Lineweaver-Burk plots, pNPP substrate); format: biochemical; set-up: dose or concentration left out as unconfirmed
Procedure: […] The initial rate was determined on the basis of the rate of increase in absorbance at 405 nm. The Michaelis-Menten constant (Km) and maximal velocity (Vmax) of PTP1β were determined by Lineweaver-Burk Plot analysis for competitive inhibition, and the intercept on the vertical axis for noncompetitive inhibition.
A kinetic analysis of PTP1β inhibition by compounds 7 and 11 using Lineweaver-Burk plots of 1/velocity and 1/concentration of substrate is shown in Fig. 2. […] However, compound 7 yielded a noncompetitive inhibition pattern against PTP1β. […] These compounds may be potential lead compounds for further development as a functional food source for the prevention of diabetes.

[5] = Table 2, concentration 100 μg/mL, read-out: Inhibition (%)
[6] = Table 2, isolated compounds, mean of 3 duplication analyses, read-out: IC50 (μg/ml) (converted)
[7] = isolated compounds, read-out: IC50

Compound	inhibition at 100 µg/mL [1, 5] [%]	IC50 [1, 6] [µM]	inhibition at 10 µg/mL ([1]; Table 2) [%]	inhibition at 50 µg/mL ([1]; Table 2) [%]	IC50 [1, 7] [µM]	further results
Cc1ccc(C(=O)Nc2ccc(S(=O)(=O)O)c3cc(S(=O)(=O)O)cc(S(=O)(=O)O)c23)cc1NC(=O)c1cccc(NC(=O)Nc2cccc(C(=O)Nc3cc(C(=O)Nc4ccc(S(=O)(=O)O)c5cc(S(=O)(=O)O)cc(S(=O)(=O)O)c45)ccc3C)c2)c1 [Suramin, suramin, reference compound]						inhibition at 3.21 µg/mL ([1]; Table 1, concentration 3.21 μg/mL): 10.7%; inhibition at 6.49 µg/mL ([1]; Table 1, concentration 6.49 μg/mL): 40.6%; inhibition at 12.97 µg/mL ([1]; Table 1, concentration 12.97 μg/mL): 61.9%; inhibition at 1 µg/mL ([1]; Table 2, concentration 1 μg/mL): 10.7%; inhibition at 2.5 µg/mL ([1]; Table 2, concentration 2.5 μg/mL): 46.5%; inhibition at 5 µg/mL ([1]; Table 2, concentration 5 μg/mL): 64.3%
O=C(O)c1ccc(O)c(O)c1 [compound 1, protocatechuic acid]						inhibition at 100 µg/mL [1]: < 50%
COc1cc(C(=O)O)ccc1O [compound 2, vanillic acid]	< 50					
O=C(O)c1c(O)cc(O)cc1O [compound 3, 2,4,6-trihydroxy benzoic acid]	< 50					
O=C(O)/C=C/c1ccc(O)cc1 [compound 4, p-4-hydroxycinnamic acid]	< 50					
COc1cc(/C=C/C(=O)O)ccc1O [compound 5, ferulic acid]	96.1	185	28.3	64.5	185	
COc1cc(-c2oc3cc(O)cc(O)c3c(=O)c2O[C@@H]2O[C@H](CO)[C@@H](O)[C@H](O)[C@H]2O)ccc1O [compound 7, 3′-methoxyhirsutrin]		64	15	85.9	64	inhibition at 25 µg/mL ([1]; Table 2): 36.8%; type of inhibition of PTP1β [4]: noncompetitive; inhibitory activity on rat lenses aldose reductase [2]: significant inhibitory activities; inhibitory activity on human recombinant aldose reductase [3]: significant inhibitory activities

Continued, in another order:

inhibition at 100 µg/mL [1, 5] [%]	IC50 [1, 6] [µM]	inhibition at 10 µg/mL ([1]; Table 2) [%]	inhibition at 50 µg/mL ([1]; Table 2) [%]	IC50 [1, 7] [µM]	Compound	further results
< 50					O=c1c(O[C@@H]2O[C@H](CO)[C@@H](O)[C@H](O)[C@H]2O)c(-c2ccc(O)c(O)c2)oc2cc(O)cc(O)c12 [compound 6, hirsutrin]	inhibitory activity on rat lenses aldose reductase [2]: significant inhibitory activities; inhibitory activity on human recombinant aldose reductase [3]: significant inhibitory activities
< 50					OC[C@H]1O[C@@H](Oc2cc3c(O)cc(O)cc3[o+]c2-c2ccc(O)c(O)c2)[C@H](O)[C@@H](O)[C@@H]1O [compound 8, cyanidin-3-glucoside]	
55	211	1.09	13.3	211	OC[C@H]1O[C@@H](Oc2cc3c(O)cc(O)cc3[o+]c2-c2ccc(O)cc2)[C@H](O)[C@@H](O)[C@@H]1O [compound 9, pelargonidin-3-glucoside]	
< 50					COc1cc(-c2[o+]c3cc(O)cc(O)c3cc2O[C@@H]2O[C@H](CO)[C@@H](O)[C@H](O)[C@H]2O)ccc1O [compound 10, peonidin-3-glucoside]	
	54.1	18.5	91.7	54.1	O=C(O)CC(=O)OC[C@H]1O[C@@H](Oc2cc3c(O)cc(O)cc3[o+]c2-c2ccc(O)c(O)c2)[C@H](O)[C@@H](O)[C@@H]1O [compound 11, cyanidin-3-(6”-malonylglucoside)]	inhibition at 25 µg/mL ([1]; Table 2): 36.2%; type of inhibition of PTP1β [4]: mixed; inhibitory activity on rat lenses aldose reductase [2]: significant inhibitory activities; inhibitory activity on human recombinant aldose reductase [3]: significant inhibitory activities
